Read-outs that look alike come from different tables or passages of the source.

Experimental findings from patent publication US20050031597A1, “Cells and improved method for preserving cells” (priority 2003, published 2005) are described below.

The test system of one data set is human platelets. The data set can be described thus: Loading of platelets with trehalose (anthrone reaction). Type of data set: cell-based. As to conditions: for trehalose uptake: 37° C.; for loading efficiency of trehalose: 4 hour incubation, 50 mM external trehalose. The method, then: Washing of Platelets. Platelet concentrations were obtained from the Sacramento blood center or from volunteers in our laboratory. Platelet rich plasma was centrifuged for 8 minutes at 320×g to remove erythrocytes and leukocytes. The supernatant was pelleted and washed two times (480×g for 22 minutes, 480×g for 15 minutes) in buffer A (100 MM NaCl, 10 MM KCl, 10 mM EGTA, 10 mM imidazole, pH 6.8). Platelet counts were obtained on a Coulter counter T890 (Coulter, Inc., Miami, Fla.).
Loading of Platelets with Trehalose. Washed platelets in a concentration of 1-2 10^9 platelets/ml were incubated at various temperatures in the presence of 1-20 mg/ml trehalose. Incubation temperatures were chosen from 4° C. to 37° C. Incubation times were varied from 0.5 to 4 hours. After incubation the platelet solutions were washed in buffer A two times (by centrifugation at 14,000 RPM for 20 s in a table centrifuge). Platelet counts were obtained on a coulter counter. Platelets were pelleted (45 S at 14,000 RPM) and sugars were extracted from the pellet using 80% methanol. The samples were heated for 30 minutes at 80° C. The methanol was 10 evaporated with nitrogen, and the samples were kept dry and redissolved in H2O prior to analysis. The amount of trehalose in the platelets was quantified using the anthrone reaction (Umbreit et al., Mamometric and Biochemical Techniques, 5th Edition, 1972). Samples were redissolved in 3 ml H2O and 6 ml anthrone reagents (2 g anthrone dissolved in 10M sulfuric acid). After vortex mixing, the samples were placed in a boiling water bath for 3 minutes. Then the samples were cooled on ice and the absorbance was measured at 620 nm on a Perkin Elmer spectrophotometer. The amount of platelet associated trehalose was determined using a standard curve of trehalose.
Quantification of Trehalose and LYCH Concentration. Uptake was calculated for each sample as micrograms of trehalose or LYCH per platelet. The internal trehalose concentration was calculated assuming a platelet radius of 1.2 μm and by assuming that 50% of the platelet volume is taken up by the cytosol (rest is membranes). The loading efficiency was determined from the cytosolic trehalose or LYCH concentration and the concentration in the loading buffer.

Data set [1] has as its system erythrocytic cells. The data set can be described thus: ATP level of erythrocytic cells. Type of data set: cell-based. From the text: (§1) Levels of ATP and DPG may be measured or assayed in biological samples (e.g., in cells) by any suitable means or procedure. By way of example only, levels of ATP and DPG may be measured or assayed in biological samples (e.g., in cells) by using Sigma Diagnostic (Sigma Aldrich Chemicals, St. Louis, Mo.) assay kits (cat. # for ATP assay 366 and 366-A, and for 2,3-DPG assay 35-A) designed for determination of ATP and 2,3-DPG in biological samples (e.g., red blood cells). By further way of example only, biological samples (e.g., cells) may be lysed using 12% and 8% trichloracetic acid for ATP and 2,3-DPG determination, respectively. ATP may be quantified enzymatically by catalyzing ATP to ADP in the presence of 3-phosphoglycerate (3-PGA) using phosphoglycerate phosphokinase (PGK) and the resulting 1,3-diphosphoglycerate induced oxidation of NADH to NAD using glyceraldehyde phosphate dehydrogenase (GAPD) present in the assay media. The level of NADH may be monitored spectrophotometrically at 340 nm which corresponds directly with the ATP level. 2,3-DPG may be hydrolyzed by 2,3-DPG phosphatase to 3-PGA and inorganic phosphorus in the presence of 2-phosphoglycolic acid as a stimulator. 3-PGA reacts with ATP in the presence of PGK and the subsequent steps follow the above protocol used for ATP quantification. […]

Data set [2] concerns erythrocytic cells. The experiment in a line: 2,3-DPG level of erythrocytic cells. Type of data set: cell-based.
From the text: as §1

For data set [3], the system named is erythrocytic cells. The data set can be described thus: Osmotic fragility index of trehalose-loaded erythrocytic cells. It counts as cell-based. The procedure:
FIG. 6 graphically illustrates the fragility index of erythrocytic cells incubated overnight at respective temperatures of 4° C. and 37° C. in the presence of and as a function of increasing intracellular trehalose concentrations. The osmotic fragility index was generated by the extent of hemolysis as a function of the NaCl concentration. The erythrocytic cells that had been loaded in trehalose solutions (between 250 mM and 1000 mM) in 100 mOsm PBS were suspended in increasing concentrations of NaCl (between 50 and 600 mOsm NaCl). The percent hemolysis measured after resuspending the loaded cells in NaCl represents the fragility index.

Data set [4] relates to erythrocytic cells. The data set can be described thus: Mean corpuscular hemoglobin of trehalose-loaded, freeze-dried and rehydrated erythrocytic cells. Type of data set: cell-based.
Description: The cells had been loaded in media with different trehalose concentration (400 mM trehalose, 500 mM trehalose, 600 mM trehalose, 700 mM trehalose and 800 mm trehalose) in 100 mOsm PBS pH 7.2. The cells were freeze-dried in 300 mM trehalose in 100 mOsm PBS, 15% HES and 2.54% HSA and rehydrated in a buffer containing 188 mM trehalose, 15% HES and 2.5% HSA.
Data set [5] has as its system erythrocytic cells. The data set can be described thus: Hemolysis / survival of freeze-dried and rehydrated erythrocytic cells.
Description: Cells were loaded in either 800 mM trehalose, 100 mOsm ADSOL, 6.6 mM Na-phosphate (FIG. 21, data set labeled as 800 mM treh) or in 800 mM trehalose, 100 mOsm ADSOL, 6.6 mM Na-phosphate and 1.2 mg/ml α-crystallin (FIG. 21, data set labeled as +α-crystallin 1.2 mg/ml). Cells were subsequently mixed with freeze-drying buffer with final concentration of 250 mM trehalose, 20 mOsm ADSOL, 15% HES and 2.5% HSA and were freeze-dried. After freeze-drying they were directly rehydrated (no pre-hydration) in 141 mM trehalose, 75 mOsm PBS, 11.25% HES and 1.875% HSA. […] In the third data set of FIG. 21, along with 1.2 mg/ml α-crystallin, there was 0.5 mg/ml α-crystallin added to the rehydration buffer.
Rehydration experiments were performed combining α-crystallin and Zn^2+ ions, and applying 5 min pre-hydration.
The cells were loaded in media with different trehalose concentration (400, 500, 600, 700 and 800 mM trehalose) in 100 mOsm PBS pH 7.2. The cells were freeze-dried in 300 mM trehalose in 100 mOsm PBS, 15% HES and 2.54% HSA and rehydrated in a buffer containing 188 mM trehalose, 15% HES and 2.5% HSA.
Loading buffer comprised 800 mM trehalose in a salt solution of 100 mOsm PBS. The incubation time was 16 hours at a temperature of about 35° C. After the cells were loaded, they were subsequently washed in a washing buffer comprising 300 mM in a salt solution of 100 mOsm PBS. Within 3 hours after washing the loaded cells, the wash loaded cells were freeze-dried in freeze-drying buffer comprising about 300 mM trehalose, about 100 mOsm PBS, about 2.5% by wt. HSA, and about 15% by wt. HES. After the freeze-drying procedure the cells had about 75 mM trehalose, about 25 mOsm PBS, about 0.6% by wt. HSA and about 4.0% by wt. HES left in the cells. The freeze-dried cells were then reconstituted at about 37° C. for about 10 minutes in a rehydration buffer comprising about 188 mM trehalose, about 100 mOsm PBS, about 2.5% by wt.

Consider `OC[C@H]1O[C@H](O[C@H]2O[C@H](CO)[C@@H](O)[C@H](O)[C@H]2O)[C@H](O)[C@@H](O)[C@@H]1O` [trehalose], for which the trehalose uptake in the data set on human platelets (after 2 hours, rapid linear uptake) is 3.3×10^−10 mol/m^2s; in the data set on human platelets (from 0 to 2 hours), 2.8×10^−11 mol/m^2s. In addition, the “loading efficiency of trehalose” value in the data set on human platelets (22° C. and below) was “below 5%”; in the data set with human platelets (37° C. (FIG. 1)) it was 35%. This molecule also came in with a loading efficiency in the data set on human platelets (time course at 37° C., incubation period of 4 hours (FIG. 2)) of 61%. Moreover, the “level of ATP” value in the data set with erythrocytic cells [1] (37° C., during 16 hours of incubation) is recorded as “does not decrease”; in the data set on erythrocytic cells [1] (trehalose solute solution, about 37° C., about 0 to about 7 hours, increases from about 4.0), “about 4.5 μmol/gHb”. For the same molecule, the “level of 2,3-DPG” value is given as “high” in the data set with erythrocytic cells [2] (37° C., first 7 hours of incubation) and “about 8.5 μmol/gHb” in the data set on erythrocytic cells [2] (7 hours incubation at about 37° C. in a trehalose containing solution). Further, the osmotic fragility entry in the data set on erythrocytic cells [3] (1000 mM trehalose in 100 mOsm PBS at 37° C.) was “unstable”; with erythrocytic cells [3] (trehalose media between 250 mM and 800 mM in 100 mOsm PBS, 37° C. and 4° C.), “stable osmotically”. Also, the results for the “mean corpuscular hemoglobin in rehydrated cells” value with erythrocytic cells [4] (cells loaded in 400 mM trehalose) and in the data set with erythrocytic cells [4] (cells loaded in 800 mM trehalose) were “about 7 pg” and “about 14 pg”, respectively. Moreover, the MCH entry in the data set on erythrocytic cells [4] (intracellular trehalose about 40 mM to about 42 mM) is reported as “about 9 pg”; in the data set with erythrocytic cells [4] (intracellular trehalose about 60 mM), “greater than 14 pg”. Besides, the “biconcave shape and cell integrity of rehydrated cells” value in the data set on erythrocytic cells [5] (60 mM cytoplasmic trehalose, freeze-dried and rehydrated (FIG. 14)) is given as “well preserved”. Moreover, the “cells lysed after rehydration” value in the data set on erythrocytic cells [5] (protocol of Example 12: loaded 800 mM trehalose/100 mOsm PBS, freeze-dried and rehydrated with trehalose, PBS, HSA, HES) is recorded as “less than 5%”. In the data set with erythrocytic cells [5] (read-out: % hemolysis of rehydrated cells), the hemolysis at 100000 µM is less than 10%. The hemolysis at 800000 µM came out at 63% in the data set on erythrocytic cells [5] (read-out: hemolysis after freeze-drying and direct rehydration); 68% with erythrocytic cells [5] (read-out: percent hemolysis after freeze-drying and direct rehydration).
